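1) Cells in 96-well plates. 2) Compound, 48 h, 5 concentrations. 3) Linear interpolation between surrounding doses. 4) Unreached endpoint = highest concentration. TGI marks complete inhibition of growth.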 *1 amine or outer side, *2 acyl side, *3 side chain or, on linkers, in order; H or OH if unused. Where a SMILES comes first, the peptide text is derived from it. [ ]: non-standard residue; d: D form. X33 = C=CCC(O[*:1])C(=O)[*:2]; NMeV = CN[CH](C(=O)O)C(C)C; NMeA = CN[CH](C)C(=O)O; βAla = NCCC(=O)O
Assays:
Assay in all cases: inhibition of tumour cell growth, NCI panel, 48 h
[1] = test system: 786-0 renal
[2] = test system: A549 NSCLC
[3] = test system: ACHN renal
[4] = test system: BT-549 breast
[5] = test system: CAKI-1 renal
[6] = test system: CCRF-CEM leukemia
[7] = test system: COLO 205 colon
[8] = test system: DU-145 prostate
[9] = test system: EKVX NSCLC
[10] = test system: HCC-2998 colon
[11] = test system: HCT-116 colon
[12] = test system: HCT-15 colon
[13] = test system: HL-60(TB) leukemia
[14] = test system: HOP-62 NSCLC
[15] = test system: HOP-92 NSCLC
[16] = test system: HS 578T breast
[17] = test system: HT29 colon
[18] = test system: IGROV1 ovarian
[19] = test system: KM12 colon
[20] = test system: LOX IMVI melanoma
[21] = test system: M14 melanoma
[22] = test system: MCF7 breast
[23] = test system: MDA-MB-231 breast
[24] = test system: MDA-MB-435
[25] = test system: MDA-N
[26] = test system: MOLT-4 leukemia
[27] = test system: NCI-H23 lung
[28] = test system: NCI-H460 lung
[29] = test system: NCI-H522 lung
[30] = test system: NCI/ADR-RES ovarian
[31] = test system: OVCAR-3 ovarian
[32] = test system: OVCAR-4 ovarian
[33] = test system: OVCAR-5 ovarian
[34] = test system: OVCAR-8 ovarian
[35] = test system: PC-3 prostate
[36] = test system: RPMI-8226 leukemia
[37] = test system: SF-268 CNS
[38] = test system: SF-295 CNS
[39] = test system: SF-539 CNS
[40] = test system: SK-MEL-2 melanoma
[41] = test system: SK-MEL-28 melanoma
[42] = test system: SK-MEL-5 melanoma
[43] = test system: SN12C renal
[44] = test system: SNB-19 CNS
[45] = test system: SNB-75 CNS
[46] = test system: SR leukemia
[47] = test system: SW-620 colon
[48] = test system: T-47D breast
[49] = test system: TK-10 renal
[50] = test system: U251 CNS
[51] = test system: UACC-257 melanoma
[52] = test system: UACC-62 melanoma
[53] = test system: UO-31 renal
[54] = test system: A498 renal
[55] = test system: K-562 leukemia
[56] = test system: MALME-3M melanoma
[57] = test system: NCI-H226 lung
[58] = test system: RXF 393 renal
[59] = test system: SK-OV-3 ovarian

For `C=CCC1OC(=O)CCNC(=O)C(C)N(C)C(=O)C(C(C)C)N(C)C(=O)C(C(C)CC)NC(=O)C2CCCN2C1=O` (stereo not given) (cyclo([X33]PI[NMeV][NMeA][βAla]); configuration not given here), the TGI [1] was > 100 µM, the TGI [2] was > 100 µM and the TGI [3] was > 100 µM. The TGI [4] was > 100 µM, the TGI [5] was > 100 µM and the TGI [6] was > 100 µM. The TGI [7] was > 100 µM, the TGI [8] was > 100 µM and the TGI [9] was > 100 µM. For the same molecule, the TGI [10] was > 100 µM, the TGI [11] was > 100 µM and the TGI [12] was > 100 µM. The TGI [13] was 8.47 µM, the TGI [14] was > 100 µM and the TGI [15] was > 100 µM. The TGI [16] was > 100 µM, the TGI [17] was > 100 µM and the TGI [18] was > 100 µM. The TGI [19] was > 100 µM, the TGI [20] was 5.17 µM and the TGI [21] was > 100 µM. The TGI [22] was > 100 µM, the TGI [23] was 62.9 µM and the TGI [24] was > 100 µM. The TGI [25] was > 100 µM, the TGI [26] was > 100 µM and the TGI [27] was > 100 µM. The TGI [28] was > 100 µM, the TGI [29] was > 100 µM and the TGI [30] was > 100 µM. The TGI [31] was > 100 µM, the TGI [32] was > 100 µM and the TGI [33] was > 100 µM. The TGI [34] was > 100 µM, the TGI [35] was > 100 µM and the TGI [36] was 7.84 µM. The TGI [37] was > 100 µM, the TGI [38] was > 100 µM and the TGI [39] was > 100 µM. For the same molecule, the TGI [40] was > 100 µM, the TGI [41] was > 100 µM and the TGI [42] was 6.12 µM. The TGI [43] was > 100 µM, the TGI [44] was > 100 µM and the TGI [45] was > 100 µM. The TGI [46] was > 100 µM, the TGI [47] was > 100 µM and the TGI [48] was > 100 µM. The TGI [49] was > 100 µM, the TGI [50] was > 100 µM and the TGI [51] was 71.6 µM. It also gave a TGI [52] of 7.43 µM and a TGI [53] of 47.5 µM.

With `COc1cc(/C=C2\C(=O)N(Cc3ccccc3)C(c3ccccc3)S2(=O)=O)cc(OC)c1OC` (stereo not given) the TGI [1] was > 100 µM, the TGI [54] was > 100 µM and the TGI [2] was > 100 µM. For the same molecule, the TGI [3] was > 100 µM, the TGI [4] was > 100 µM and the TGI [5] was > 100 µM. For the same molecule, the TGI [6] was > 100 µM, the TGI [7] was 94 µM and the TGI [8] was > 100 µM. The TGI [9] was > 100 µM, the TGI [10] was > 100 µM and the TGI [11] was > 100 µM. For the same molecule, the TGI [12] was > 100 µM, the TGI [13] was 44.9 µM and the TGI [14] was > 100 µM. The TGI [15] was > 100 µM, the TGI [16] was > 100 µM and the TGI [17] was > 100 µM. For the same molecule, the TGI [55] was > 100 µM, the TGI [19] was > 100 µM and the TGI [20] was > 100 µM. For the same molecule, the TGI [21] was > 100 µM, the TGI [56] was > 100 µM and the TGI [22] was > 100 µM. For the same molecule, the TGI [23] was > 100 µM, the TGI [24] was > 100 µM and the TGI [25] was > 100 µM. The TGI [26] was 14.7 µM, the TGI [57] was > 100 µM and the TGI [27] was > 100 µM. For the same molecule, the TGI [28] was > 100 µM, the TGI [29] was > 100 µM and the TGI [30] was > 100 µM. The TGI [31] was > 100 µM, the TGI [32] was > 100 µM and the TGI [33] was > 100 µM. The TGI [34] was > 100 µM, the TGI [35] was > 100 µM and the TGI [58] was > 100 µM. The TGI [37] was > 100 µM, the TGI [38] was > 100 µM and the TGI [40] was > 100 µM. The TGI [41] was > 100 µM, the TGI [42] was 51.8 µM and the TGI [59] was > 100 µM. The TGI [43] was > 100 µM, the TGI [44] was > 100 µM and the TGI [46] was 65.5 µM. For the same molecule, the TGI [47] was > 100 µM, the TGI [48] was > 100 µM and the TGI [49] was > 100 µM. For the same molecule, the TGI [50] was > 100 µM, the TGI [51] was > 100 µM and the TGI [52] was > 100 µM. For the same molecule, the TGI [53] was > 100 µM.

In the case of `Clc1nc(Cl)c(-c2ccccc2)c(Cl)n1`, the TGI [1] is reported as 6.55 µM, the TGI [54] is reported as 30.1 µM and the TGI [2] is reported as 36.1 µM. It also gave a TGI [4] of 7.09 µM, a TGI [5] of 3.33 µM and a TGI [6] of 8.28 µM. The TGI [7] was 3.6 µM, the TGI [8] was 26.4 µM and the TGI [9] was 3.46 µM. It also gave a TGI [10] of 5.32 µM, a TGI [11] of 3.6 µM and a TGI [12] of 5.01 µM. It also gave a TGI [13] of 4.77 µM, a TGI [14] of 33 µM and a TGI [15] of 11.4 µM. The TGI [16] was > 100 µM, the TGI [17] was 49.3 µM and the TGI [18] was 14 µM. For the same molecule, the TGI [55] was > 35 µM, the TGI [19] was 14.6 µM and the TGI [20] was 3.73 µM. The TGI [21] was 3.33 µM, the TGI [56] was 4.38 µM and the TGI [22] was 9.45 µM. The TGI [23] was 10.7 µM, the TGI [24] was 9.55 µM and the TGI [25] was 6.67 µM. For the same molecule, the TGI [26] was > 100 µM, the TGI [57] was 5.76 µM and the TGI [27] was 12 µM. The TGI [28] was 35.9 µM, the TGI [29] was 3.24 µM and the TGI [30] was 11 µM. It also gave a TGI [31] of 7.71 µM, a TGI [32] of 6.55 µM and a TGI [33] of 9.88 µM. It also gave a TGI [34] of 10.6 µM, a TGI [35] of 16.5 µM and a TGI [36] of 6.16 µM. The TGI [58] was 5.58 µM, the TGI [37] was > 29.9 µM and the TGI [38] was 27.2 µM. It also gave a TGI [39] of 10.9 µM, a TGI [41] of 19.3 µM and a TGI [42] of 9.36 µM. For the same molecule, the TGI [59] was 23.3 µM, the TGI [43] was 8.84 µM and the TGI [44] was 28.5 µM. For the same molecule, the TGI [45] was > 54.8 µM, the TGI [46] was 6.85 µM and the TGI [47] was 5.34 µM. For the same molecule, the TGI [48] was 9.28 µM, the TGI [49] was 22.2 µM and the TGI [50] was 10 µM. It also gave a TGI [51] of 7.65 µM, a TGI [52] of 10.7 µM and a TGI [53] of 9.08 µM.

— PubChem BioAssay (NCI)
